Earlier results as cited in patent US20030004141A1, “Medical devices, compositions and methods for treating vulnerable plaque” (priority 2001, published 2003).

Conditions: general statement from cited pre-clinical and clinical studies

For `CNC(=O)[C@@H](NC(=O)[C@H](CC(C)C)[C@H](O)C(=O)NO)C(C)(C)C` [marimastat], the in vivo toxicity is listed as “minimal in vivo toxicity”.
